In patent US20060292683A1, “Cross-beta structures on microbial organisms” (Crossbeta Biosciences B.V., priority 2005, published 2006):

How the values were obtained:
Escherichia coli TOP10 = test: ROS production by bEnd.3 endothelial cells upon exposure to E. coli TOP10; type: cell-based; details: 8.1×10^7 E. coli cells/ml with either 1.25 mg/ml IgIV, 0.8 mg/ml finger domains, 220 μM Congo red, 220 μM ThT or 1.1 μM tPA
Excerpt: (§1) Glycated proteins comprising a cross-beta structure and amyloid-β induce inflammatory responses and are believed to contribute to the pathogenesis of certain protein misfolding diseases (diabetes type II, Alzheimer's disease). In general, misfolded proteins induce cellular dysfunction with enhanced expression or activation of inflammatory signals. The effect of misfolded proteins on endothelial cell (dys)function is, for example, measured by determining the levels of reactive oxygen species or nitric oxide or tissue factor in response to misfolded proteins. Human umbilical vein endothelial cells (HUVEC) that are isolated and cultured, according to standard protocols, are used, or other endothelial cells such as the murine microvascular bEnd.3 endothelial cell line. The levels of reactive oxygen species (ROS), like, for example, nitric oxide, are monitored using fluorescent probes, such as CM-H2DCF-DA. Alternatively, cell viability is monitored by standard MTT-assay. The levels of tissue factor expression is determined using a chromogenic assay with purified factor VII, purified factor X and chromogenic substrate S-2765 (Chromogenix), using cell lysates. For example, bEnd.3 cells are seeded at 120,000 cells/well of a 96-well culture dish, and cultured overnight. […]
(§2) To assess production of reactive oxygen species by cultured mouse microvascular bEnd.3 endothelial cells (ECs), cells are seeded at 128,000 cells/well of a 96-well plate (Costar, 3904). […] For the analysis of ROS production, 10 μl of tester samples and controls are added to separate wells, and fluorescence is measured every two minutes for 70 minutes upon excitation at 488 nm with the emission wavelength set to 538 nm. […]

S. aureus Newman [1] = test: ROS production by bEnd.3 endothelial cells upon exposure to S. aureus Newman; type: cell-based, Staphylococcus aureus; details: 1.13×10^8 S. aureus cells/ml with either 1.25 mg/ml IgIV, 0.8 mg/ml finger domains, 220 μM Congo red, 220 μM ThT or 1.1 μM tPA
Excerpt: as §1, §2

E. coli TOP10 = test: Binding of dyes to E. coli TOP10 by visual inspection; design: species or system Escherichia coli; details: E. coli TOP10 after incubation with Thioflavin T, Congo red, tPA and IgIV
Protocol: (§3) Staphylococcus aureus Newman, which was a kind gift of Dr. Jos van Strijp and Dr Kok van Kessel (Dept. of Microbiology, University Medical Center Utrecht, the Netherlands) was plated on a blood plate from a stock stored at −70° C., and incubated overnight at 37° C. The plate was stored at 4° C. Escherichia coli strain TOP10 (Invitrogen, 44-0301) was plated on agar with Luria broth medium from a −80° C. glycerol stock, and incubated overnight at 37° C. The plate was stored at 4° C. Overnight cultures of 5 ml in Luria broth medium were grown at 37° C. with vigorous shaking and aeration, by streaking a single colony with the tip of a pipet and transferring the tip to the medium in a 15-ml tube. The cell density in overnight cultures was determined by measuring the absorbance at 600 nm (A600=1 is equivalent with 0.8×10^9 cells/ml). Cells were pelleted by centrifugation for one minute at 16,000*g or for ten minutes at 3,000*g. Medium was discarded. One half of the cells were resuspended in PBS in 1/10 of the original medium volume (10× concentration of the cells) by pipetting and swirling. These cells were used as reference cells. […]
(§4) Binding of cross-beta structure binding compounds to E. coli TOP10 and S. aureus Newman after incubation of the bacteria with Thioflavin T, Congo red, tPA and IgIV, as described in the Materials & Methods section, was determined in two ways. […]

S. aureus Newman [2] = test: Binding of dyes to S. aureus Newman by visual inspection; design: species or system Staphylococcus aureus; details: S. aureus Newman after incubation with Thioflavin T, Congo red, tPA and IgIV
Protocol: as §3, §4

[3] = system: protein and peptide aggregates with cross-β structure conformation; test: ELISA binding to immobilized peptides with cross-β structure conformation; details: immobilized Aβ, FP13, TTR11, LAM12 or IAPP; GST-tagged F domains
Excerpt: FIG. 2: Binding of tPA, factor XII, fibronectin and finger domains thereof to compounds with cross-β structure. Panels A-C: Full-length purified tPA (Panel A), factor XII (Panel B) and fibronectin (Panel C) bind to immobilized peptides with cross-β structure conformation, in an ELISA.
Previously, we established that tissue-type plasminogen activator specifically interacts with protein and peptide aggregates that comprise a cross-β structure conformation, a structural element found in amyloid-like polypeptide assemblies (Bouma et al., 2003; Kranenburg et al., 2002). Now, we expanded this analysis to other proteins that resemble tPA domain architecture and we separated domains of tPA. Binding of full-length tPA, factor XII and fibronectin, as well as of fibronectin type I (finger, F) domains of tPA and factor XII and F4-5 of fibronectin, to protein and peptide aggregates with cross-β structure conformation was analyzed in an ELISA. […] Binding of tPA and factor XII was established for immobilized amyloid-β(1-40) (Aβ) with amyloid-like properties, fibrin peptide FP13, that encompasses the tPA activating sequence 148KRLEVDIDIKIR160 (SEQ ID NO:——————) of the fibrin α-chain, TTR11, which is an 11 amino-acid residues peptide from transthyretin that forms cross-β structure, and LAM12, which is a 12 amino-acid residues peptide from laminin that forms cross-β structure (FIG. 2, Panels A and B). Negative controls were freshly dissolved, monomerized Aβ and non-amyloid murine islet amyloid polypeptide (mIAPP). For fibronectin, human amyloid IAPP is depicted instead of LAM12 (FIG. 2, Panel C).

| Molecule | effect on ROS production by bEnd.3 ECs, co-incubation (Escherichia coli TOP10) | effect on ROS production by bEnd.3 ECs, co-incubation (S. aureus Newman [1]) | binding of dye to bacterium cells, visual inspection (E. coli TOP10) | binding of dye to bacterium cells, visual inspection (S. aureus Newman [2]) | binding to cross-β structure rich compounds in ELISA [3] |
| --- | --- | --- | --- | --- | --- |
| Cc1ccc2c(c1)sc(-c1ccc(N(C)C)cc1)[n+]2C.[Cl-] [Thioflavin T] | to some extent | slightly decrease ROS production | bound to the cells |  |  |
| Nc1c(/N=N/c2ccc(-c3ccc(/N=N/c4cc(S(=O)(=O)O)c5ccccc5c4N)cc3)cc2)cc(S(=O)(=O)O)c2ccccc12 [Congo red] | reverse ROS production | strongly inhibits ROS expression |  | intense red |  |
| fibronectin: full-length purified fibronectin |  |  |  |  | bind specifically |
| tPA: tissue-type plasminogen activator (Actilyse, Boehringer-Ingelheim) | not able to reduce ROS production | does not influence S. aureus induced ROS production |  |  | bind specifically |
| fibronectin F4-5: recombinant fibronectin type I domains 4-5 of fibronectin with carboxy terminal GST-tag |  |  |  |  | bind specifically |
| factor XII: full-length purified factor XII (protein, UniProt P00748 1-615, looked up, full-length) MRALLLLGFLLVSLESTLSIPPWEAPKEHKYKAEEHTVVLTVTGEPCHFPFQYHRQLYHKCTHKGRPGPQPWCATTPNFDQDQRWGYCLEPKKVKDHCSKHSPCQKGGTCVNMPSGPHCLCPQHLTGNHCQKEKCFEPQLLRFFHKNEIWYRTEQAAVARCQCKGPDAHCQRLASQACRTNPCLHGGRCLEVEGHRLCHCPVGYTGAFCDVDTKASCYDGRGLSYRGLARTTLSGAPCQPWASEATYRNVTAEQARNWGLGGHAFCRNPDNDIRPWCFVLNRDRLSWEYCDLAQCQTPTQAAPPTPVSPRLHVPLMPAQPAPPKPQPTTRTPPQSQTPGALPAKREQPPSLTRNGPLSCGQRLRKSLSSMTRVVGGLVALRGAHPYIAALYWGHSFCAGSLIAPCWVLTAAHCLQDRPAPEDLTVVLGQERRNHSCEPCQTLAVRSYRLHEAFSPVSYQHDLALLRLQEDADGSCALLSPYVQPVCLPSGAARPSETTLCQVAGWGHQFEGAEEYASFLQEAQVPFLSLERCSAPDVHGSSILPGMLCAGFLEGGTDACQGDSGGPLVCEDQAAERRLTLQGIISWGSGCGDRNKPGVYTDVAYYLAWIREHTVS |  |  |  |  | bind specifically |
